Test results as given in ChEMBL document CHEMBL1212738, “Phenotypic and genotypic characterization of Enterobacteriaceae with decreased susceptibility to carbapenems: results from large hospital-based surveillance studies in China” (2010).
Converted amounts (≈) assume the structure as drawn.

Columns and labels:
[1] = test system: Escherichia coli; assay: Antimicrobial activity against carbapenem-resistant Escherichia coli PU43 deficient in TEM-1, CTX-M-14, aac(6')-Ib, ompC/F by CLSI method; type: functional
[2] = test system: Escherichia coli; assay: Antimicrobial activity against carbapenem-resistant Escherichia coli PU101 deficient in TEM-1, CTX-M-14, CMY-2, ompC by CLSI method; type: functional
[3] = test system: Escherichia coli; assay: Antimicrobial activity against carbapenem-resistant Escherichia coli PU102 deficient in TEM-1, CTX-M-14, CMY-2, aac(6')-Ib, ompC DEc, ompF by CLSI method; type: functional
[4] = test system: Enterobacter cloacae; assay: Antimicrobial activity against carbapenem-resistant Enterobacter cloacae WH103 deficient in IMP-4, TEM-1, CTX-M-3, qnrS1, ompC by CLSI method; type: functional
[5] = test system: Escherichia coli; assay: Antimicrobial activity against Escherichia coli C600 transconjugant SZ62T expressing IMP-4, qnrS1by CLSI method
[6] = test system: Klebsiella aerogenes; assay: Antimicrobial activity against carbapenem-resistant Enterobacter aerogenes PU41 deficient in CTX-M-14, DHA-1, qnrS1, ompC DEc, ompF by CLSI method; type: functional
[7] = test system: Klebsiella pneumoniae; assay: Antimicrobial activity against carbapenem-resistant Klebsiella pneumoniae ZJ69 deficient in SHV-28, ompK35/36 by CLSI method; type: functional
[8] = test system: Klebsiella pneumoniae; assay: Antimicrobial activity against carbapenem-resistant Klebsiella pneumoniae ZJ71 deficient in KPC-2, TEM-1, SHV-11, CTX-M-14, ompK35 by CLSI method; type: functional
[9] = test system: Klebsiella pneumoniae; assay: Antimicrobial activity against Klebsiella pneumoniae ZJ18T expressing KPC-2, DHA-1 by CLSI method; type: functional
[10] = test system: Escherichia coli; assay: Antimicrobial activity against Escherichia coli C600 transconjugant WH77T expressing IMP-4, TEM-1, CTX-M-3, qnrS1 by CLSI method
[11] = test system: Klebsiella pneumoniae; assay: Antimicrobial activity against carbapenem-resistant Klebsiella pneumoniae GZ83 deficient in SHV-11, CTX-M-14, ompK35/36 by CLSI method; type: functional
[12] = test system: Klebsiella pneumoniae; assay: Antimicrobial activity against Klebsiella pneumoniae FZ49T expressing IMP-8, TEM-1, CTX-M-14, qnrB2, aac(6')-Ib by CLSI method; type: functional
[13] = test system: Klebsiella pneumoniae; assay: Antimicrobial activity against carbapenem-resistant Klebsiella pneumoniae ZJ18 deficient in KPC-2, SHV-28, DHA-1, ompK35 by CLSI method; type: functional
[14] = test system: Escherichia coli; assay: Antimicrobial activity against carbapenem-resistant Escherichia coli HX74 deficient in TEM-1, CTX-M-14, CTX-M-3, aac(6')-Ibcr, ompC/F by CLSI method; type: functional
[15] = test system: Klebsiella pneumoniae; assay: Antimicrobial activity against Klebsiella pneumoniae ZJ99T expressing KPC-2, CTX-M-3, qnrS1 by CLSI method; type: functional
[16] = test system: Escherichia coli; assay: Antimicrobial activity against Escherichia coli C600 transconjugant XJ81T expressing TEM-1, SHV-12, aac(6')-Ib by CLSI method
[17] = test system: Escherichia coli; assay: Antimicrobial activity against carbapenem-resistant Escherichia coli ZJ86 expressing KPC-2, TEM-1 with ompC loss by CLSI method
[18] = test system: Klebsiella pneumoniae; assay: Antimicrobial activity against carbapenem-resistant Klebsiella pneumoniae FZ49 deficient in IMP-8, TEM-1, SHV-11, CTX-M-14, qnrB2, aac(6')-Ib, ompK35/36 by CLSI method; type: functional
[19] = test system: Klebsiella pneumoniae; assay: Antimicrobial activity against Klebsiella pneumoniae FZ47T expressing IMP-8, TEM-1, CTX-M-14, qnrB2, aac(6')-Ib by CLSI method; type: functional
[20] = test system: Klebsiella pneumoniae; assay: Antimicrobial activity against carbapenem-resistant Klebsiella pneumoniae GZ66 deficient in SHV-11, DHA-1, ompK35/36 by CLSI method; type: functional
[21] = test system: Escherichia coli; assay: Antimicrobial activity against Escherichia coli HX74T expressing CTX-M-3 by CLSI method; type: functional
[22] = test system: Escherichia coli; assay: Antimicrobial activity against carbapenem-resistant Escherichia coli PU96 deficient in TEM-1, CTX-M-14, CMY-2, ompC/F by CLSI method; type: functional
[23] = test system: Klebsiella pneumoniae; assay: Antimicrobial activity against carbapenem-resistant Klebsiella pneumoniae XJ81 deficient in TEM-1, SHV-12, DHA-1, aac(6')-Ib, ompK35/36 by CLSI method; type: functional
[24] = test system: Escherichia coli; assay: Antimicrobial activity against Escherichia coli C600 by CLSI method; type: functional
[25] = test system: Klebsiella pneumoniae; assay: Antimicrobial activity against Klebsiella pneumoniae WH97 expressing SHV-33, aac(6')-Ib, ompK35 DE by CLSI method; type: functional
[26] = test system: Escherichia coli; assay: Antimicrobial activity against carbapenem-resistant Escherichia coli PU60 deficient in TEM-1, CMY-2, ompC/F by CLSI method; type: functional
[27] = test system: Klebsiella pneumoniae; assay: Antimicrobial activity against carbapenem-resistant Klebsiella pneumoniae PU3 deficient in DHA-1, aac(6')-Ib-cr, ompK35/36 by CLSI method; type: functional
[28] = test system: Escherichia coli; assay: Antimicrobial activity against Escherichia coli PU102T expressing TEM-1, CTX-M-14, CMY-2 by CLSI method; type: functional
[29] = test system: Escherichia coli; assay: Antimicrobial activity against Escherichia coli ZJ87 expressing KPC-2, TEM-1, ompC by CLSI method; type: functional
[30] = test system: Klebsiella pneumoniae; assay: Antimicrobial activity against carbapenem-resistant Klebsiella pneumoniae SZ61 deficient in TEM-1, SHV-1a, CMY-2, ompK35/36 by CLSI method; type: functional
[31] = test system: Klebsiella pneumoniae; assay: Antimicrobial activity against Klebsiella pneumoniae ZJ99 expressing KPC-2, CTX-M-3, qnrS1, ompK35 DE by CLSI method; type: functional
[32] = test system: Enterobacter cloacae; assay: Antimicrobial activity against carbapenem-resistant Enterobacter cloacae SZ92 deficient in IMP-4, TEM-1, CTX-M-14, DHA-1, qnrB10/B4-like, aac(6')-Ib, ompC by CLSI method; type: functional
[33] = test system: Escherichia coli; assay: Antimicrobial activity against Escherichia coli C600 transconjugant GZ66T expressing SHV-11, DHA-1 by CLSI method
[34] = test system: Klebsiella pneumoniae; assay: Antimicrobial activity against Klebsiella pneumoniae WH77 expressing IMP-4, TEM-1, SHV-14, CTX-M-3, qnrS1 by CLSI method; type: functional
[35] = test system: Klebsiella pneumoniae; assay: Antimicrobial activity against carbapenem-resistant Klebsiella pneumoniae ZJ70 deficient in KPC-2, SHV-11, CTX-M-14, ompK35/36 by CLSI method; type: functional
[36] = test system: Citrobacter freundii; assay: Antimicrobial activity against Citrobacter freundii RJ78 expressing CMY-2, qnrA1, aac(6')-Ib-cr, ompC by CLSI method; type: functional
[37] = test system: Citrobacter freundii; assay: Antimicrobial activity against Citrobacter freundii SZ63T expressing IMP-4, qnrS1by CLSI method; type: functional
[38] = test system: Klebsiella pneumoniae; assay: Antimicrobial activity against Klebsiella pneumoniae ZJ70T expressing KPC-2 by CLSI method; type: functional
[39] = test system: Enterobacter cloacae; assay: Antimicrobial activity against carbapenem-resistant Enterobacter cloacae RJ94 deficient in IMP-4, TEM-1, CTX-M-3, ompC by CLSI method; type: functional
[40] = test system: Enterobacter cloacae; assay: Antimicrobial activity against carbapenem-resistant Enterobacter cloacae NJ90 deficient in CTX-M-14, ompC/F by CLSI method; type: functional

SMILES	MIC [1] [µg/mL]	MIC [2] [µg/mL]	MIC [3] [µg/mL]	MIC [4] [µg/mL]	MIC [5] [µg/mL]	MIC [6] [µg/mL]	MIC [7] [µg/mL]	MIC [8] [µg/mL]	MIC [9] [µg/mL]	MIC [10] [µg/mL]	MIC [11] [µg/mL]	MIC [12] [µg/mL]	MIC [13] [µg/mL]	MIC [14] [µg/mL]	MIC [15] [µg/mL]	MIC [16] [µg/mL]	MIC [17] [µg/mL]	MIC [18] [µg/mL]	MIC [19] [µg/mL]	MIC [20] [µg/mL]	further results
CO[C@@]1(NC(=O)Cc2cccs2)C(=O)N2C(C(=O)O)=C(COC(N)=O)CS[C@@H]21 [CEFOXITIN]	128 (≈ 299 µM)	> 256	> 256	> 256	> 256	> 256	> 256	16 (≈ 37.4 µM)	128 (≈ 299 µM)	> 256	> 256	> 256	> 256	64 (≈ 150 µM)	32 (≈ 74.9 µM)	16 (≈ 37.4 µM)	64 (≈ 150 µM)	> 256	> 256	> 256	MIC [21]: 16 µg/mL (≈ 37.4 µM); MIC [22]: > 256 µg/mL; MIC [23]: > 256 µg/mL; MIC [24]: 16 µg/mL (≈ 37.4 µM); MIC [25]: > 256 µg/mL; MIC [26]: > 256 µg/mL; MIC [27]: > 256 µg/mL; MIC [28]: > 256 µg/mL; MIC [29]: 64 µg/mL (≈ 150 µM); MIC [30]: > 256 µg/mL; MIC [31]: 32 µg/mL (≈ 74.9 µM); MIC [32]: > 256 µg/mL; MIC [33]: 128 µg/mL (≈ 299 µM); MIC [34]: > 256 µg/mL; MIC [35]: 128 µg/mL (≈ 299 µM); MIC [36]: > 256 µg/mL; MIC [37]: > 256 µg/mL; MIC [38]: 32 µg/mL (≈ 74.9 µM); MIC [39]: > 256 µg/mL; MIC [40]: > 256 µg/mL
CC(C)(O/N=C(\C(=O)N[C@@H]1C(=O)N2C(C(=O)[O-])=C(C[n+]3ccccc3)CS[C@H]12)c1csc(N)n1)C(=O)O [CEFTAZIDIME]	32 (≈ 58.5 µM)	> 256	64 (≈ 117 µM)	> 256	> 256	64 (≈ 117 µM)	128 (≈ 234 µM)	32 (≈ 58.5 µM)	16 (≈ 29.3 µM)	> 256	> 256	> 256	64 (≈ 117 µM)	256 (≈ 468 µM)	128 (≈ 234 µM)	64 (≈ 117 µM)	32 (≈ 58.5 µM)	> 256	> 256	> 256	MIC [21]: 256 µg/mL (≈ 468 µM); MIC [22]: > 256 µg/mL; MIC [23]: > 256 µg/mL; MIC [24]: 0.5 µg/mL (≈ 0.915 µM); MIC [25]: > 256 µg/mL; MIC [26]: 256 µg/mL (≈ 468 µM); MIC [27]: 128 µg/mL (≈ 234 µM); MIC [28]: 64 µg/mL (≈ 117 µM); MIC [29]: 32 µg/mL (≈ 58.5 µM); MIC [30]: 256 µg/mL (≈ 468 µM); MIC [31]: 64 µg/mL (≈ 117 µM); MIC [32]: > 256 µg/mL; MIC [33]: 128 µg/mL (≈ 234 µM); MIC [34]: 256 µg/mL (≈ 468 µM); MIC [35]: 64 µg/mL (≈ 117 µM); MIC [36]: 128 µg/mL (≈ 234 µM); MIC [37]: > 256 µg/mL; MIC [38]: 32 µg/mL (≈ 58.5 µM); MIC [39]: > 256 µg/mL; MIC [40]: > 256 µg/mL
CN(C)c1cc(NC(=O)CNC(C)(C)C)c(O)c2c1C[C@H]1C[C@H]3[C@H](N(C)C)C(O)=C(C(N)=O)C(=O)[C@@]3(O)C(O)=C1C2=O [TIGECYCLINE]	0.25 (≈ 0.427 µM)	0.064 (≈ 0.109 µM)	0.25 (≈ 0.427 µM)	1 (≈ 1.71 µM)	0.13 (≈ 0.222 µM)	1 (≈ 1.71 µM)	0.5 (≈ 0.854 µM)	0.13 (≈ 0.222 µM)	0.06 (≈ 0.102 µM)	0.06 (≈ 0.102 µM)	0.5 (≈ 0.854 µM)	0.06 (≈ 0.102 µM)	1 (≈ 1.71 µM)	0.064 (≈ 0.109 µM)	0.25 (≈ 0.427 µM)	0.064 (≈ 0.109 µM)	0.25 (≈ 0.427 µM)	0.5 (≈ 0.854 µM)	0.06 (≈ 0.102 µM)	0.5 (≈ 0.854 µM)	MIC [21]: 0.125 µg/mL (≈ 0.213 µM); MIC [22]: 1 µg/mL (≈ 1.71 µM); MIC [23]: 0.5 µg/mL (≈ 0.854 µM); MIC [24]: 0.06 µg/mL (≈ 0.102 µM); MIC [25]: 0.5 µg/mL (≈ 0.854 µM); MIC [26]: 0.125 µg/mL (≈ 0.213 µM); MIC [27]: 0.25 µg/mL (≈ 0.427 µM); MIC [28]: 0.25 µg/mL (≈ 0.427 µM); MIC [29]: 0.25 µg/mL (≈ 0.427 µM); MIC [30]: 4 µg/mL (≈ 6.83 µM); MIC [31]: 1 µg/mL (≈ 1.71 µM); MIC [32]: 1 µg/mL (≈ 1.71 µM); MIC [33]: 0.125 µg/mL (≈ 0.213 µM); MIC [34]: 0.5 µg/mL (≈ 0.854 µM); MIC [35]: 0.25 µg/mL (≈ 0.427 µM); MIC [36]: 1 µg/mL (≈ 1.71 µM); MIC [37]: 0.13 µg/mL (≈ 0.222 µM); MIC [38]: 0.13 µg/mL (≈ 0.222 µM); MIC [39]: 1 µg/mL (≈ 1.71 µM); MIC [40]: 0.5 µg/mL (≈ 0.854 µM)
